Values of other authors in patent US20090061012A1 (priority 2007, published 2009).

Experiments:
Conditions in all cases: in vivo
[1] = test system: Lemon, Blue, and Great White Sharks
sharks [2] = test system: sharks
sharks [3] = test system: sharks; remark: listed apart in the source
[4] = test system: shark's respiratory systems via the gill rakes

| Molecule | repelling sharks relative to pardaxin [1] | also measured |
| --- | --- | --- |
| CCCCCCCCCCCCOS(=O)(=O)[O-].[Li+] [LLS, lithium lauryl sulfate] | even better than pardaxin |  |
| CCCCCCCCCCCCOS(=O)(=O)[O-].[Na+] [SDS, sodium dodecyl sulphate] |  | concentration at which effective as a repellent (sharks [2]): 43.6 ppm |
| CCCCCCCCCCCCOS(=O)(=O)[O-].[Na+] [SLS, sodium lauryl sulfate] | even better than pardaxin | effectiveness in surrounding-cloud mode dispersions (sharks [3]): not effective |
| CCCCCCCCCCCCCCCCCCOS(=O)(=O)[O-].[Na+] [SOS, sodium octadecyl sulphate] | even better than pardaxin |  |
| pardaxin |  | repellent impact on sharks [4]: significant repellent impact |
